Earlier results, collected in US20230339856A1, “NOVEL PHARMACOLOGICAL CHAPERONE COMPOUNDS OF HUMAN ACID ALPHA-GLUCOSIDASE AND THE THERAPEUTIC USE THEREOF” (UNIVERSITÉ GRENOBLE ALPES, priority 2020, published 2023).

Legend:
rhGAA = rhGAA (Homo sapiens (Human), UniProt P10253); details: literature value, cited from earlier work; for rhGAA ΔTm: pH 4.3, measured at [compound]=10 times the value of Ki
[1] = target: α-glucosidase II of the endoplasmic reticulum (GANAB) (Homo sapiens (Human), UniProt Q14697); details: literature value; cited from earlier work
Sequence of α-glucosidase II of the endoplasmic reticulum (GANAB) (Q14697 29-944): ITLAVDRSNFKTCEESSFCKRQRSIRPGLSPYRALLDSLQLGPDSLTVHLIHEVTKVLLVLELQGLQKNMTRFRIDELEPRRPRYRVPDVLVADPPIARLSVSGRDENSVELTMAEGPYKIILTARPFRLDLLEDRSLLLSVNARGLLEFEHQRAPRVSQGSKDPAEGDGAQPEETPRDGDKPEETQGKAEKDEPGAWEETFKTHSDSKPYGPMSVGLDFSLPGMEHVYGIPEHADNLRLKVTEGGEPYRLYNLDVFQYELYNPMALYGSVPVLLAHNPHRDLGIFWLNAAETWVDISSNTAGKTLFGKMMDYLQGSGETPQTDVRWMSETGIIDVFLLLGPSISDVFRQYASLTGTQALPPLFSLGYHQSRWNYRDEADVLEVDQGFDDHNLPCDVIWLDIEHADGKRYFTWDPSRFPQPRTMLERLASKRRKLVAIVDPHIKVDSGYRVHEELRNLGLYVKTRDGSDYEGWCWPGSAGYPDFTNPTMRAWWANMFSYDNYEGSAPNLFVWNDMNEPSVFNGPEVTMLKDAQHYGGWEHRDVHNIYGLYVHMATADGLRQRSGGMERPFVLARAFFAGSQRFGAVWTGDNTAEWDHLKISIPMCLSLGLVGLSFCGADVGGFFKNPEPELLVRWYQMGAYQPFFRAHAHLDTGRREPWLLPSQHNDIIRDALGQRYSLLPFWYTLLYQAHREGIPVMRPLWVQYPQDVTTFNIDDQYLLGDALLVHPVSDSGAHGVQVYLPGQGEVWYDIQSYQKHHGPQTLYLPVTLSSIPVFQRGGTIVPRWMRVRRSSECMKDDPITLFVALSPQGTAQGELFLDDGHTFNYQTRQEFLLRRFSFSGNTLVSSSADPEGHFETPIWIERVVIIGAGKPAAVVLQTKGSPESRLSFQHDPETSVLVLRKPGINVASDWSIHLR
Sequence of α-glucosidase II of the endoplasmic reticulum (GANAB) (P14314 15-528 partner): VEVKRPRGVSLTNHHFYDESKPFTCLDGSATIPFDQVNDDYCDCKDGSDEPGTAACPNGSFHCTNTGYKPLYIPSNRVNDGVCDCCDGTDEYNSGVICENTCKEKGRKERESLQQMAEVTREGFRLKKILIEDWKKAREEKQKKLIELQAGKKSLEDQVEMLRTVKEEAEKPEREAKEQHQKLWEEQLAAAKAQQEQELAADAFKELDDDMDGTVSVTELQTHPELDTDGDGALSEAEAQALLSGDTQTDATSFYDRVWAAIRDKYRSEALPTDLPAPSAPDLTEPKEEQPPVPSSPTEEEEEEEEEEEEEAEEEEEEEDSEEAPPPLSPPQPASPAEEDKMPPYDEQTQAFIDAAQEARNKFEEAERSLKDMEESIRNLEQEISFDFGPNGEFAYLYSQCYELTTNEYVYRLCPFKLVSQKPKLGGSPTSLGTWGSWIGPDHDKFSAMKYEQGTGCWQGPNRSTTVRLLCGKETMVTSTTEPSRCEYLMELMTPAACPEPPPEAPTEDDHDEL

Row | Structure (SMILES) | rhGAA ΔTm (rhGAA) | rhGAA ΔTm at pH 7.4 (rhGAA) | IC50 [1]
1 | OC[C@H]1NC[C@H](O)[C@@H](O)[C@@H]1O [DNJ, deoxynojirimycin] | 2.7 (pH 4.3)*^b ° C. | 15^c^ ° C. | –
2 | CCCCN1C[C@H](O)[C@@H](O)[C@H](O)[C@H]1CO [NB-DNJ] | 6.2 (pH 4.3)*^b ° C. | 12^d^ ° C. | 15 µM
